Results on eleven compounds are retold here after ChEMBL document CHEMBL1201862, “PubChem BioAssay data set” (2004).

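48-hour exposure; five concentrations; linearly interpolated endpoints. GI50 marks 50% less growth.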 Activity calls are given as the source filed them. No stated cut-off is given here; in the data, active = GI50 up to about 1.1 µM and inactive = higher.

Test systems include SNB-75; SK-MEL-28; SR; EKVX; IGROV-1; SW-620; M14; RXF 393; SF-268; T47D; HCC 2998; OVCAR-5; A549; CAKI-1; SNB-19; MDA-MB-231; Malme-3M; HT-29; HOP-62; SK-MEL-5.
Test in all cases: inhibition of tumour cell growth, NCI panel, 48 h

Turning to `CCOC(=O)C1(C#N)OC(=O)c2cnccc21` (centres undefined), the GI50 with SNB-75, in the assay with SK-MEL-28, in the assay on SR, in the assay on EKVX, in the assay with IGROV-1 and in the assay with SW-620 was > 100 µM (inactive) each time. In addition, the GI50 with M14, in the assay on RXF 393, in the assay with SF-268, in the assay with T47D, with HCC 2998 and in the assay on OVCAR-5 was > 100 µM (inactive) throughout. Also, the GI50 in the assay with A549, in the assay with CAKI-1, with SNB-19, in the assay with MDA-MB-231, with Malme-3M and in the assay with HT-29 was > 100 µM (inactive) throughout.
As to `CN(Cc1nc2c(N)nc(N)nc2nc1N)c1ccc(C(=O)NC(CCC(=O)O)C(=O)O)cc1` (centres undefined), the GI50 in the assay on SNB-75 is 7.45 µM (inactive); with SK-MEL-28, > 76.4 µM (inactive); in the assay with SR, < 0.01 µM (active); in the assay on IGROV-1, 3.07 µM (inactive); in the assay with SW-620 it was 0.033 µM (active); in the assay on M14 it was 0.0615 µM (active). The GI50 with RXF 393 was > 100 µM (inactive); in the assay on SF-268, 0.299 µM (active); with T47D, > 100 µM (inactive); with HCC 2998 it was 3.65 µM (inactive); in the assay on OVCAR-5, 17.7 µM (inactive); with HOP-62, 0.231 µM (active). Besides, the GI50 with CAKI-1 is 0.0322 µM (active); with SNB-19, 64.6 µM (inactive); in the assay on MDA-MB-231, > 100 µM (inactive); in the assay with HT-29 it was < 0.01 µM (active); in the assay with SK-MEL-5, 1.55 µM (inactive).
Consider `CC(=O)O[C@@H]1[C@H](OC2CCCCC2(c2ccccc2)c2ccccc2)O[N+]([O-])=CC12CCCCC2` (some centres undefined), for which the GI50 in the assay on SNB-75 is 15.9 µM (inactive); with SK-MEL-28 it was 13.8 µM (inactive); in the assay with SR, 32 µM (inactive); in the assay with EKVX it was 17.9 µM (inactive); in the assay on IGROV-1 it was 20.1 µM (inactive); with SW-620 it was 16 µM (inactive). Besides, the GI50 was 18.7 µM (inactive) in the assay on M14; 17.8 µM (inactive) in the assay on RXF 393; 18.6 µM (inactive) with SF-268; 18.4 µM (inactive) in the assay with T47D; 17.1 µM (inactive) in the assay with HCC 2998; 15.8 µM (inactive) with OVCAR-5. Further, the GI50 with A549 is 17.7 µM (inactive); in the assay with CAKI-1 it was 14.4 µM (inactive); in the assay with MDA-MB-231 it was 15.4 µM (inactive); in the assay on HT-29, 18.6 µM (inactive); in the assay with SK-MEL-5 it was 15 µM (inactive).
With `C=CC(O)C#Cc1cnc(OC)nc1OC` (centres undefined), the GI50 is 65.8 µM (inactive) in the assay with SNB-75; > 100 µM (inactive) in the assay on SK-MEL-28; > 100 µM (inactive) with SR; > 100 µM (inactive) in the assay with EKVX; > 100 µM (inactive) with IGROV-1; 75.9 µM (inactive) with SW-620. In addition, the GI50 in the assay with M14, with RXF 393, in the assay on SF-268, with T47D, with HCC 2998 and in the assay with OVCAR-5 was > 100 µM (inactive) each time. For the same compound, the GI50 is > 100 µM (inactive) in the assay on A549; > 100 µM (inactive) with HOP-62; 35.1 µM (inactive) in the assay on CAKI-1; > 100 µM (inactive) in the assay with SNB-19; > 100 µM (inactive) in the assay with MDA-MB-231; > 100 µM (inactive) in the assay with HT-29. Moreover, the GI50 with SK-MEL-5 was > 100 µM (inactive).
With `Cc1nc2c(C)c3c([nH]c4ccc(Cl)cc43)c(C)c2c(O)c1C`, the GI50 with SNB-75 was 16.8 µM (inactive); in the assay on SK-MEL-28 it was 10.8 µM (inactive); in the assay on SR, 2.19 µM (inactive); in the assay with EKVX, 22 µM (inactive); in the assay on IGROV-1 it was 5.27 µM (inactive); in the assay with SW-620, 7.52 µM (inactive). The GI50 is 10.9 µM (inactive) in the assay with M14; 16.1 µM (inactive) in the assay on SF-268; 4.66 µM (inactive) in the assay on T47D; 6.46 µM (inactive) in the assay with HCC 2998; 6.76 µM (inactive) with OVCAR-5; 2.82 µM (inactive) in the assay on A549. Moreover, the GI50 in the assay with HOP-62 was 4.23 µM (inactive); with CAKI-1, 5.71 µM (inactive); in the assay on SNB-19, 15.7 µM (inactive); in the assay on MDA-MB-231, 2.44 µM (inactive); in the assay with Malme-3M, 8.43 µM (inactive); in the assay on HT-29 it was 4.37 µM (inactive). Also, the GI50 in the assay on SK-MEL-5 is 11.8 µM (inactive).
For `S=C(Nc1ccc2c(c1)oc1ccccc12)c1cccnc1`, the GI50 is 21.2 µM (inactive) in the assay with SNB-75; > 100 µM (inactive) with SK-MEL-28; > 100 µM (inactive) with SR; 65.9 µM (inactive) in the assay with EKVX; 41.1 µM (inactive) in the assay with IGROV-1; > 100 µM (inactive) in the assay with SW-620. The GI50 was > 100 µM (inactive) with M14; 29.5 µM (inactive) with SF-268; 30.5 µM (inactive) in the assay with T47D; > 100 µM (inactive) with HCC 2998; 55.8 µM (inactive) in the assay with OVCAR-5; 37.6 µM (inactive) with A549. The GI50 in the assay on HOP-62 is 17.1 µM (inactive); in the assay with SNB-19, 21.3 µM (inactive); in the assay with MDA-MB-231, > 100 µM (inactive); with Malme-3M, > 100 µM (inactive); in the assay on HT-29, > 100 µM (inactive); with SK-MEL-5 it was 70.8 µM (inactive).
`Cc1cn(CCOCCOC(=O)NC(CCCNC(N)=O)C(=O)O)c(=O)[nH]c1=O` (centres undefined): the GI50 with SNB-75 was > 100 µM (inactive); with SK-MEL-28, > 100 µM (inactive); in the assay on SR, > 100 µM (inactive); with EKVX, > 100 µM (inactive); with IGROV-1 it was 36 µM (inactive); in the assay on SW-620, > 100 µM (inactive). In addition, the GI50 in the assay on M14, with RXF 393, in the assay with SF-268, in the assay with T47D, in the assay on HCC 2998 and in the assay with OVCAR-5 was > 100 µM (inactive) each time. Further, the GI50 in the assay with A549, in the assay on HOP-62, with CAKI-1, in the assay on SNB-19, in the assay on MDA-MB-231 and in the assay on HT-29 was > 100 µM (inactive) throughout.
As to `C=CCOC(=O)Cn1cnc2c(N)ncnc21`, the GI50 in the assay with SNB-75, with SK-MEL-28, with SR, in the assay on EKVX, in the assay with IGROV-1 and in the assay with SW-620 was > 100 µM (inactive) in each case. The GI50 in the assay on M14, with SF-268, in the assay with T47D, in the assay with HCC 2998, in the assay with A549 and in the assay with HOP-62 was > 100 µM (inactive) in each case. In addition, the GI50 with CAKI-1, in the assay with SNB-19, in the assay with MDA-MB-231, with Malme-3M, in the assay with HT-29 and with SK-MEL-5 was > 100 µM (inactive) in each case.
Take `CC1CCC2CC1NC(=O)CCOCCC(=O)NC2(C)C` (centres undefined): the GI50 with SNB-75, in the assay on SK-MEL-28, in the assay on SR, with EKVX, in the assay with IGROV-1 and in the assay with SW-620 was > 100 µM (inactive) throughout. The GI50 in the assay on M14, with SF-268, in the assay with T47D, in the assay with HCC 2998, with OVCAR-5 and in the assay on A549 was > 100 µM (inactive) throughout. For the same compound, the GI50 in the assay with HOP-62, with SNB-19, in the assay on MDA-MB-231, with HT-29 and in the assay with SK-MEL-5 was > 100 µM (inactive) each time.
`COc1cccc(C[C@H]2COC(=O)[C@]2(O)Cc2cccc(OC)c2)c1`: the GI50 in the assay on SNB-75 is > 100 µM (inactive); with SK-MEL-28, > 100 µM (inactive); in the assay on SR it was > 100 µM (inactive); with EKVX, 26.5 µM (inactive); with IGROV-1, > 100 µM (inactive); in the assay on SW-620, > 100 µM (inactive). For the same compound, the GI50 is > 100 µM (inactive) in the assay on M14; < 0.01 µM (active) with SF-268; 18.1 µM (inactive) with T47D; 70.8 µM (inactive) in the assay with HCC 2998; > 100 µM (inactive) in the assay on OVCAR-5; > 100 µM (inactive) with A549. Further, the GI50 was > 100 µM (inactive) with HOP-62; 18.1 µM (inactive) in the assay on CAKI-1; > 100 µM (inactive) in the assay on SNB-19; > 100 µM (inactive) in the assay on MDA-MB-231; 60.5 µM (inactive) in the assay on Malme-3M; > 100 µM (inactive) in the assay on HT-29. Besides, the GI50 in the assay with SK-MEL-5 was 50.9 µM (inactive).
`COc1c(Cl)ccc(Cl)c1-c1nnc(-c2c(Cl)c(Cl)c(Cl)c(Cl)c2-c2nc3cc(C(=O)c4ccccc4)ccc3[nH]2)o1`: the GI50 with SNB-75 was 33.5 µM (inactive); in the assay on SK-MEL-28, 47.2 µM (inactive); in the assay with SR, 25.4 µM (inactive); in the assay on EKVX, 45.4 µM (inactive); in the assay on IGROV-1, 45.5 µM (inactive); with SW-620, 44.1 µM (inactive). Further, the GI50 is 50.9 µM (inactive) in the assay on M14; 20.8 µM (inactive) in the assay with RXF 393; 57.1 µM (inactive) in the assay with SF-268; > 100 µM (inactive) in the assay with T47D; > 100 µM (inactive) in the assay on OVCAR-5; 45.2 µM (inactive) with A549. For the same compound, the GI50 in the assay on HOP-62 is 43.5 µM (inactive); in the assay with CAKI-1 it was > 100 µM (inactive); in the assay with SNB-19, 62.2 µM (inactive); with MDA-MB-231 it was 43.8 µM (inactive); with Malme-3M it was 47.1 µM (inactive); in the assay with HT-29, 57.8 µM (inactive). The GI50 in the assay on SK-MEL-5 was 16.6 µM (inactive).
